Entries after “also recorded” stand apart in the source; their conditions may differ.
Experiments:
[1] = target: T1, FimH lectin domain (amino acids 1-158) (Escherichia coli, UniProt P08191); test: biochemical; assay type: binding, E. coli; settings: for IC50: IC50, competitive inhibition of biotinylated Man-BSA binding to coated FimH lectin; for RIP (relative inhibitory potency): relative to reference MeMan, 23
T1 construct: using a FimH lectin domain (amino acids 1-158) LEctPROFILE kit (provided by GLYcoDiag); purchased GLYcoDiag (Orléans, France)
T1 sequence (P08191 22-179): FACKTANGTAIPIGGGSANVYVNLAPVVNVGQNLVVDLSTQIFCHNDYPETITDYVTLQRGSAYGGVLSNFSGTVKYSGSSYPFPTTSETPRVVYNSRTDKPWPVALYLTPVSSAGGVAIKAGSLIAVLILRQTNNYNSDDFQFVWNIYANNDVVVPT
Protocol: To measure the relative binding affinity of the newly synthesized compounds 11, 20, and 18 against FimH, the usual referenced standards were used for comparison with previously published data: heptyl α-D-mannopyranoside (HepMan, 21), para-nitrophenyl α-D-mannopyranoside (PNPMan, 22), and methyl α-D-mannopyranoside (MeMan, 23). The relative inhibitory potential of the above compounds was determined against a biotinylated Man-BSA conjugate using a FimH lectin domain (amino acids 1-158) LEctPROFILE kit (provided by GLYcoDiag) (Figure 1, Table 1).
FimH LEctPROFILE kit assays from GLYcoDiag (Orléans, France) were performed according to GlycoDiag’s protocol already described. Briefly, the interaction profiles of each compound were determined through a competitive inhibition assay based on the inhibition by the compounds of the interaction between FimH lectin coated onto the microplate surface and a biotinylated neoglycoprotein NeoM (Man-BSA) as a tracer. A mix of biotinylated Man-BSA (fixed concentration) and the corresponding compounds (range of concentrations) prepared in PBS supplemented with 1 mM CaCl2 and 0.5 mM MgCl2 was deposited in each well (50 µL each) in triplicate and incubated for two hours at room temperature. After washing with PBS buffer, the conjugate streptavidin-DTAF (dichlorotriazinylamino fluorescein) was added (50 µL) and incubated 30 min more. The plate was washed again with PBS. Finally, 100 µL of PBS was added for the readout of fluorescent plate performed with a fluorescence reader (Pherastar microplate reader, BMG labtech, λex = 485 nm, λem = 530 nm). The signal intensity is inversely correlated with the capacity of the compound to be recognized by the lectin and expressed as inhibition percentage with comparison with the corresponding tracer alone. Data analysis was performed with GraphPadPrism software (version 5.03 for windows, San Diego, CA, USA). 50% inhibitory concentration (IC50) was determined according to a standard dose-response/inhibition fitting model with the following equation: y = 100 / (1 + [inhibitor]/IC50) and expressed in nanomolar units.

[2] = test system: strain CFT073 adhesion to HTB-9 cells; test: Bacterial adhesion assay on bladder cell monolayers; assay type: cell-based, Escherichia coli / human; settings: for efficiency at reducing FimH-mediated bacterial adherence (result in words): 500 μM, HTB-9 cells, CFT073
Protocol: To evaluate the efficacy of the synthetic mannoside antagonists to inhibit the ability of CFT073 strain to adhere to epithelial cells, an in vitro adhesion assay was performed. For this purpose, equal amounts of strain CFT073 strain were inoculated in PBS supplemented with different concentrations of each mannoside at final concentrations of 100, 500 μM, and 1 mM and incubated for 3h under static conditions. Bacterial inoculation was used to infect cell line 5637 (HTB-9 cell) monolayers at a multiplicity of infection (MOI) of 10. At 2.5 h post-infection, the number of cell-associated bacteria was calculated by CFU/mL counting (Figure 9). No significant inhibition of bacterial adhesion to bladder cells was obtained using mannoside inhibitors at 100 µM. Conversely, a significant reduction (more than 1 log) in the number of adherent bacteria was observed by increasing the concentration of the mannosides to 500 μM in comparison to non-treated bacteria (Figure 10). The same extent of reduction in bacterial adhesion to bladder cells was obtained by increasing mannosides concentration to 1 mM, thereby showing a dose-dependent effect. […] To appraise qualitatively the reduction of bacterial adhesion, parallel infected cells were fixed, and Giemsa stained.
HTB-9 cells were routinely seeded in cell culture plates and maintained 2–4 days at 37 °C in a humidified atmosphere containing 5% CO2. For the adhesion assay, cells were seeded in 35 mm tissue culture plates at a density of 1 × 10^5 cells/well and incubated at 37 °C for 48 h to reach confluency. CFT073 was grown in LB under mild shaking conditions overnight and resuspended in phosphate buffer (PBS) to an inoculum of ~10^6 CFU/mL (normalized according to OD600). Each mannoside molecule was added to CFT073 inoculant at the final concentrations of 100, 500 μM and 1 mM and incubated for 3 h in static conditions. […] Images were recorded with a Leica DM5000B microscope equipped with DFX340/DFX300 camera and processed using the Leica Application Suite 2.7.0.R1 software (Leica).

E. coli FimH = test system: E. coli FimH; parameters: method as in PMID 28671638; settings: unit inferred; previous work; cited from earlier work
UPEC strain CFT073 = test: Mannosides as carbon source, CFU/mL counting in PBS; assay type: cell-based, Escherichia coli; settings: 24 h, 37 °C, 500 μM (D-mannose also 83 mM)
Protocol: To test whether the above mannoside derivatives could exert bactericidal and/or cytotoxic activities, bacterial growth and cell viability assays were undertaken in the presence of each mannoside at different concentrations. Natural D-mannose (D-Man) was included as control. […] Moreover, no cytotoxic effect was recorded for urinary bladder cell line 5637 (HTB-9 cell) monolayers, as measured by the MTT test (Figure 6). Since D-mannose can serve as nutrient replacement for E. coli when there is a shortage of D-glucose, we tested whether these new derivatives could be used as carbon sources as well [5]. […] Bacteria were incubated for an additional 24 h in the absence and in the presence of different mannosides and the number of viable bacteria was assessed by CFU/mL counting. […] Since carbohydrates can influence the activity of conventional antibiotics, the activity of different classes of antibiotics such as ampicillin (AMP 30 μg/mL), streptomycin (SM 50 µg/mL), and gentamycin (GM 50 µg/mL) in the presence of the synthetic mannoside analogs was evaluated.
Mannosides dissolved in dimethyl sulfoxide DMSO or water at a final concentration of 5 mM were prepared. […] Readings of culture turbidity (OD600) were determined using a plate reader (POLARstar Omega BMG Labtech plate reader, Germany). […]

| Compound | IC50 [1] [nM] | RIP (relative inhibitory potency) [1] | efficiency at reducing FimH-mediated bacterial adherence (result in words) [2] | Kd (E. coli FimH) [nM] | lower concentration than natural D-mannose for same extent of bacterial adhesion inhibition ([2]; compared with natural D-mannose) [fold] | number of viable bacteria (CFU/mL) compared to non-treated control (UPEC strain CFT073) |
| --- | --- | --- | --- | --- | --- | --- |
| OC[C@H]1O[C@H](C/C=C/c2ccc3ncccc3c2)[C@@H](O)[C@@H](O)[C@@H]1O [Compound 11] | 3.17 ± 2.3 | 887 | most efficient; also recorded: better potency in inhibiting bacterial adhesion | – | – | – |
| OC[C@H]1O[C@H](C/C=C/c2ccc(-c3ccccc3)cc2)[C@@H](O)[C@@H](O)[C@@H]1O [Compound 18] | 30.3 ± 9 | 93 | – | 17 ± 3.5 | – | – |
| OC[C@H]1O[C@H](C/C=C/c2ccccc2-c2ccncc2)[C@@H](O)[C@@H](O)[C@@H]1O [Compound 20] | 0.82 ± 0.4 | 3428 | – | – | – | – |
| CCCCCCCO[C@H]1O[C@H](CO)[C@@H](O)[C@H](O)[C@@H]1O [Compound 21, heptyl α-D-mannopyranoside] | 19.4 ± 5.2 | 145 | – | – | – | – |
| O=[N+]([O-])c1ccc(O[C@H]2O[C@H](CO)[C@@H](O)[C@H](O)[C@@H]2O)cc1 [Compound 22, para-nitrophenyl α-D-mannopyranoside] | 74.1 | 38 | – | – | – | – |
| CO[C@H]1O[C@H](CO)[C@@H](O)[C@H](O)[C@@H]1O [Compound 23, methyl α-D-mannopyranoside] | 2810 | 1 | less efficient | – | 164 | – |
| OC[C@H]1OC(O)[C@@H](O)[C@@H](O)[C@@H]1O (stereo partly drawn) [D-mannose] | – | – | – | – | – | supports the growth; also recorded: increased significantly |

Reference: paper PMC9962304, “Insightful Improvement in the Design of Potent Uropathogenic E. coli FimH Antagonists” (Pharmaceutics, 2023)
